Reference: patent US20240066138A1, “ANTIBODY-DRUG CONJUGATES, PHARMACEUTICAL COMPOSITIONS, AND THERAPEUTIC APPLICATIONS” (priority 2020, published 2024)
Like-named read-outs stand apart in the source and are kept apart here. Numbered stars: 1 amine (or outer) side, 2 acyl side, 3 side chain; on linkers, the order of the positions; unused ones are H or OH. Square brackets hold non-standard residues; d marks the D form. Peptide text beside a SMILES is read from it. * marks the point of attachment. Exatecan = CC[C@@]1(O)C(=O)OCc2c1cc1n(c2=O)Cc2c-1nc1cc(F)c(C)c3c1c2[C@@H](N*)CC3; Hexanoyl(6-maleimido) = O=C1C=CC(=O)N1CCCCCC(=O)*; NHCH2OCH2CO = O=C(COCN[*:1])[*:2]

What was measured:
Test in all cases: Cell viability assay (CELLCOUNTING-LITE)
Format in all cases: cell-based
[1] = test system: N87
Procedure: (§1) Cancerous cells (5,000/well) were seeded in a culture media in a 96-well flat-bottom plate. A compound was prepared by a 3-fold serial dilution and added into each cell solutions. The cells were incubated for 4 or 5 days at 37° C. under 5% CO2. CELLCOUNTING-LITE was added to each well, mixed, and incubated for 10 min at room temperature. The solution in each cell was transferred to a 96-well white opaque plate for reading.

[2] = test system: MV4; 11
Procedure: as §1

[3] = test system: HT29
Procedure: as §1

[4] = test system: A431
Procedure: as §1

[5] = test system: H226
Procedure: as §1

[6] = test system: A375
Procedure: as §1

[7] = test system: H322
Procedure: as §1

[8] = test system: Raji
Procedure: as §1

[9] = test system: ASPC-1
Procedure: as §1

[10] = test system: Hut78
Procedure: as §1

[11] = test system: Jurkat
Procedure: as §1

[12] = test system: T47D
Procedure: as §1

[13] = test system: MCF7
Procedure: as §1

[14] = test system: KB
Procedure: as §1

[15] = test system: Skov-3
Procedure: as §1

[16] = test system: Ramos
Procedure: as §1

[17] = test system: RS4; 11
Procedure: as §1

[18] = N87 cells, incubated for 4 or 5 days, Table 1, read-out: IC50

## CC[C@@]1(O)C(=O)OCc2c1cc1n(c2=O)Cc2c-1nc1cc(F)c(C)cc1c2C=NOCC(C)CNC(=O)CO (mixture of isomers) [Compound B3, N-(3-((((E/Z)—((S)-4-Ethyl-8-fluoro-4-hydroxy-9-methyl-3,14-dioxo-3,4,12,14-tetrahydro-1H-pyrano[3′,4′:6,7]indolizino[1,2-b]quinolin-11-yl)methylene)amino)oxy)-2-methyl-propyl)-2-hydroxyacetamide]
[1]
  IC50: 7 nM
[2]; Homo sapiens, MV4-11
  IC50: 10 nM
[3]; Homo sapiens, HT-29
  IC50: 13 nM
[4]; Homo sapiens, A-431
  IC50: 10 nM
[5]; Homo sapiens, NCI-H226
  IC50: 401 nM
[6]; Homo sapiens, A-375
  IC50: 5.9 nM
[7]; NCI-H322
  IC50: 3.9 nM
[8]; Homo sapiens, Raji
  IC50: 0.32 nM
[9]; Homo sapiens, ASPC1
  IC50: 25 nM
[10]; Homo sapiens, HuT78
  IC50: 7 nM
[11]; Homo sapiens, Jurkat
  IC50: 1.2 nM
[12]; Homo sapiens, T47D
  IC50: 1.3 nM
[13]; Homo sapiens, MCF7
  IC50: 21 nM
[14]; Homo sapiens, KB
  IC50: 18 nM
[15]; Homo sapiens, SK-OV-3
  IC50: 3.4 nM
[16]; Homo sapiens, Ramos
  IC50: 7.2 nM
[17]; Homo sapiens, RS4-11
  IC50: 0.73 nM

## CC[C@@]1(O)C(=O)OCc2c1cc1n(c2=O)Cc2c-1nc1cc(F)c(C)cc1c2C=NOCCNC(=O)CO [Compound B1, (S,E/Z)—N-(2-((((4-Ethyl-8-fluoro-4-hydroxy-9-methyl-3,14-dioxo-3,4,12,14-tetrahydro-1H-pyrano[3′,4′:6,7]indolizino[1,2-b]quinolin-11-yl)methylene)amino)oxy)ethyl)-2-hydroxyacetamide]
[1]
  IC50: 11 nM
[2]; Homo sapiens, MV4-11
  IC50: 18 nM
[3]; Homo sapiens, HT-29
  IC50: 28 nM
[4]; Homo sapiens, A-431
  IC50: 18 nM
[5]; Homo sapiens, NCI-H226
  IC50: 153 nM
[6]; Homo sapiens, A-375
  IC50: 9.4 nM
[7]; NCI-H322
  IC50: 12 nM
[8]; Homo sapiens, Raji
  IC50: 0.45 nM
[9]; Homo sapiens, ASPC1
  IC50: 54 nM
[10]; Homo sapiens, HuT78
  IC50: 11 nM
[11]; Homo sapiens, Jurkat
  IC50: 3 nM
[12]; Homo sapiens, T47D
  IC50: 2.8 nM
[13]; Homo sapiens, MCF7
  IC50: 19 nM
[14]; Homo sapiens, KB
  IC50: 31 nM
[15]; Homo sapiens, SK-OV-3
  IC50: 9.8 nM
[16]; Homo sapiens, Ramos
  IC50: 7.8 nM
[17]; Homo sapiens, RS4-11
  IC50: 1.1 nM

## CC[C@@]1(O)C(=O)OCc2c1cc1n(c2=O)Cc2c-1nc1cc(F)c(C)cc1c2C=NOCCCNC(=O)CO [Compound B2, (S,E/Z)—N-(3-((((4-ethyl-8-fluoro-4-hydroxy-9-methyl-3,14-dioxo-3,4,12,14-tetrahydro-1H-pyrano[3′,4′:6,7]indolizino[1,2-b]quinolin-11-yl)methylene)amino)oxy)propyl)-2-hydroxyacetamide]
[1]; [18]
  IC50: 9.1 nM
[2]; Homo sapiens, MV4, 11 cells, incubated for 4 or 5 days, Table 1, read-out: IC50
  IC50: 14 nM
[3]; Homo sapiens, HT-29, HT29 cells, incubated for 4 or 5 days, Table 1, read-out: IC50
  IC50: 16 nM
[4]; Homo sapiens, A-431, A431 cells, incubated for 4 or 5 days, Table 1, read-out: IC50
  IC50: 9.8 nM
[5]; Homo sapiens, NCI-H226, H226 cells, incubated for 4 or 5 days, Table 1, read-out: IC50
  IC50: 113 nM
[6]; Homo sapiens, A-375, A375 cells, incubated for 4 or 5 days, Table 1, read-out: IC50
  IC50: 6.9 nM
[7]; NCI-H322, H322 cells, incubated for 4 or 5 days, Table 1, read-out: IC50
  IC50: 12 nM
[8]; Homo sapiens, Raji cells, incubated for 4 or 5 days, Table 1, read-out: IC50
  IC50: 0.58 nM
[9]; Homo sapiens, ASPC1, ASPC-1 cells, incubated for 4 or 5 days, Table 1, read-out: IC50
  IC50: 40 nM
[10]; Homo sapiens, Hut78 cells, incubated for 4 or 5 days, Table 1, read-out: IC50
  IC50: 9.1 nM
[11]; Homo sapiens, Jurkat cells, incubated for 4 or 5 days, Table 1, read-out: IC50
  IC50: 2.1 nM
[12]; Homo sapiens, T47D cells, incubated for 4 or 5 days, Table 1, read-out: IC50
  IC50: 2.4 nM
[13]; Homo sapiens, MCF7 cells, incubated for 4 or 5 days, Table 1, read-out: IC50
  IC50: 9.2 nM
[14]; Homo sapiens, KB cells, incubated for 4 or 5 days, Table 1, read-out: IC50
  IC50: 19 nM
[15]; Homo sapiens, SK-OV-3, Skov-3 cells, incubated for 4 or 5 days, Table 1, read-out: IC50
  IC50: 11 nM
[16]; Homo sapiens, Ramos cells, incubated for 4 or 5 days, Table 1, read-out: IC50
  IC50: 6.6 nM
[17]; Homo sapiens, RS4, 11 cells, incubated for 4 or 5 days, Table 1, read-out: IC50
  IC50: 0.88 nM

## CC[C@@]1(O)C(=O)OCc2c1cc1n(c2=O)Cc2c-1nc1cc(F)c(C)c3c1c2[C@@H](NC(=O)COCNC(=O)CNC(=O)[C@H](Cc1ccccc1)NC(=O)CNC(=O)CNC(=O)CCCCCN1C(=O)C=CC1=O)CC3 [Deruxtecan, reference compound] ({Hexanoyl(6-maleimido)}-GGFG[NHCH2OCH2CO]-Exatecan)
[1]; [18]
  IC50: 9.9 nM
[2]; MV4, 11 cells, incubated for 4 or 5 days, Table 1, read-out: IC50
  IC50: 6.9 nM
[3]; HT29 cells, incubated for 4 or 5 days, Table 1, read-out: IC50
  IC50: 13 nM
[4]; A431 cells, incubated for 4 or 5 days, Table 1, read-out: IC50
  IC50: 7.7 nM
[5]; H226 cells, incubated for 4 or 5 days, Table 1, read-out: IC50
  IC50: 388 nM
[6]; A375 cells, incubated for 4 or 5 days, Table 1, read-out: IC50
  IC50: 3.6 nM
[7]; H322 cells, incubated for 4 or 5 days, Table 1, read-out: IC50
  IC50: 8.2 nM
[8]; Raji cells, incubated for 4 or 5 days, Table 1, read-out: IC50
  IC50: 0.42 nM
[9]; ASPC-1 cells, incubated for 4 or 5 days, Table 1, read-out: IC50
  IC50: 29 nM
[10]; Hut78 cells, incubated for 4 or 5 days, Table 1, read-out: IC50
  IC50: 9.9 nM
[11]; Jurkat cells, incubated for 4 or 5 days, Table 1, read-out: IC50
  IC50: 2.3 nM
[12]; T47D cells, incubated for 4 or 5 days, Table 1, read-out: IC50
  IC50: 1.9 nM
[13]; MCF7 cells, incubated for 4 or 5 days, Table 1, read-out: IC50
  IC50: 5.7 nM
[14]; KB cells, incubated for 4 or 5 days, Table 1, read-out: IC50
  IC50: 7.2 nM
[15]; Skov-3 cells, incubated for 4 or 5 days, Table 1, read-out: IC50
  IC50: 9.8 nM
[16]; Ramos cells, incubated for 4 or 5 days, Table 1, read-out: IC50
  IC50: 3.8 nM
[17]; RS4, 11 cells, incubated for 4 or 5 days, Table 1, read-out: IC50
  IC50: 0.65 nM
